“Also recorded” adds a separate entry of the source. Like-named read-outs stand apart in the source and are kept apart here.
Tests used:
HIV-RT = molecular target: T1, HIV-RT (Human immunodeficiency virus type 1 group M subtype B, UniProt P03366); assay: Primer extension assay using HIV-RT; format: biochemical; conditions: 30 min, 6 U HIV-RT, 37 °C
T1 construct: HIV-RT HIV reverse transcriptase; purchased Roboklon
Procedure: (§1) Figure 6 Primer extension assay using HIV-RT (A), human polymerases α (B), β (C), and γ (D). (Figure 6A). Primer extension assay using HIV-RT (30 min, 6U). Lane 1: (+) dATP, dCTP, dGTP, and TTP with HIV-RT. Lane 2: (−) dATP, dCTP, dGTP, and TTP without HIV-RT. Lane 3: TTP. […] Lane 5: δ-(C4; C18)-d4T4P 4d. […] Lane 7: δ-(C18)-d4T4P 20. Lane 8: δ-C-(C18)-d4T4P 24. Lane 9: d4T4P. Lane 10: d4TTP. Lane 11: d4TDP. HIV-RT assay reaction conditions: 50 mM Tris–HCl (pH 8.6), 10 mM MgCl2, 40 mM KCl, 250 μM dNTPs, HIV-RT (6 U), 0.20 μM DNA hybrid, primer-template-hybrid 0.32 mM in a reaction volume of 10 μL, incubated at 37 °C for 0.5 h, 80 °C for 7 min. Primer extension assays: 50 mA, 45 w for 4 h. (Figure 6B). For human DNA polymerase α assay (60 min, 2 U): Lane 1: (+) dATP, dCTP, dGTP, and TTP with human polymerase α. Lane 2: (−) dATP, dCTP, dGTP, and TTP without human polymerase α. Lane 3: TTP. […] Lane 5: δ-(C4; C18)-d4T4P 4d. […] Lane 7: δ-(C18)-d4T4P 20. Lane 8: δ-C-(C18)-d4T4P 24. Lane 9: d4T4P. Lane 10: d4TTP. Human DNA polymerase α assay conditions: 60 mM Tris–HCl (pH 8), 5 mM Mg(OAc)2, 100 mM KCl, 1.0 mM dithiothreitol, 0.1 mM spermine, 0.01% (w/v) bovine serum albumin, 250 μM dNTPs, 2 U human polymerase α, 0.20 μM DNA hybrid, and primer-template-hybrid 0.32 mM in a reaction volume of 10 μL, incubated at 37 °C for 1 h, 80 °C for 7 min. Primer extension assays: 50 mA, 45 w for 3 h. (Figure 6C). For human DNA polymerase β assay (60 min, 2 U): Lane 1: (+) dATP, dCTP, dGTP, and TTP with human polymerase β. Lane 2: (−) dATP, dCTP, dGTP, and TTP without human polymerase β. Lane 3: TTP. […] Lane 5: δ-(C4; C18)-d4T4P 4d. […] Lane 7: δ-(C18)-d4T4P 20. Lane 8: δ-C-(C18)-d4T4P 24. Lane 9: d4T4P. Lane 10: d4TTP. Human DNA polymerase β assay conditions: 50 mM Tris–HCl (pH 8.7), 10 mM Mg(OAc)2, 100 mM KCl, 1.0 mM dithiothreitol, 0.1 mM spermine, 0.01% (w/v) bovine serum albumin, 15% glycerol, 250 μM dNTPs, 2 U human DNA polymerase β, 0.20 μM DNA hybrid, and primer-template-hybrid 0.32 mM in a reaction volume of 10 μL, incubated at 37 °C for 1 h, 80 °C for 7 min. Primer extension assays: 50 mA, 45 w for 3 h. (Figure 6D), For the human DNA polymerase γ assay (120 min, 2 U): Lane 1: (+) dATP, dCTP, dGTP, and TTP with human polymerase γ. Lane 2: (−) dATP, dCTP, dGTP, and TTP without human polymerase γ. Lane 3: TTP. […] Lane 5: δ-(C4; C18)-d4T4P 4d. […] Lane 7: δ-(C18)-d4T4P 20. Lane 8: δ-C-(C18)-d4T4P 24. Lane 9: d4T4P. Lane 10: d4TTP. Human polymerase γ assay conditions: 60 mM Tris–HCl (pH 8), 5 mM Mg(OAc)2, 1.0 mM dithiothreitol, 0.1 mM spermine, 0.01% (w/v) bovine serum albumin, 250 μM dNTPs, 2 U human polymerase γ, 0.5 μM MnCl2, 0.20 μM DNA hybrid, primer-template-hybrid 0.32 mM in a reaction volume of 10 μL, incubated at 37 °C for 2 h, 80 °C for 7 min. Primer extension assays: 50 mA, 45 w for 3 h.
HIV-RT and human polymerases α, β, and γ were bought from Roboklon and Chimerx. The fluorescent-labeled primer and template were obtained from Metabion.
For the annealing of the primer/template mixture, 40 μL of the 10 μM primer and 60 μL of the 10 μM template were incubated for 5 min at 95 °C. Then, for optimal annealing, the temperature was reduced over a period of 2 h to 20 °C and incubated again for 20 min at 20 °C.
For the primer extension, the reaction mixture was incubated for 30 min for the HIV-RT, 60 min for the human DNA polymerase α, and 120 min for the human DNA polymerases β and γ at 37 °C, followed by 7 min at 80 °C.

[1] = Chemical hydrolysis in aqueous buffers (PBS pH 7.3 / 8.0, citrate buffer pH 2.0), RP18-HPLC; format: physicochemical; conditions: for half-life at 1.9 mM: phosphate buffered saline; for half-life: 25 mM citrate buffer, pH 2.0, 37 °C
In short: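 Compound incubated at 37 °C in PBS pH 7.3 or 8.0, or citrate/NaCl/HCl buffer adjusted to pH 2.0 with NaOH. Aliquots sampled over time, stored at −30 °C, and hydrolysis products quantified by RP18-HPLC with UV detection.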

human DNA polymerase β = molecular target: T2, human DNA polymerase β (Homo sapiens, UniProt P06746); assay: Primer extension assay using human DNA polymerase β; format: biochemical; conditions: 60 min, 2 U, 37 °C
T2 construct: purchased Chimerx
Text: Encouraged by the previously obtained results that γ-phosphate-modified-d4TDPs 3, γ-monoalkylated d4TTP derivatives as well as d4TDP were accepted as substrates by HIV-RT,[49],[50],[55],[59]−[61] δ-dialkylated d4T tetraphosphate analogues 4,5, δ-monoalkylated d4T tetraphosphate analogues 20 and 24 and d4T4P were investigated in primer extension assays in the presence of HIV-RT or the three different human DNA polymerases α, β and γ. D4TTP (for the compounds 4–9) and the natural thymidine triphosphate (TTP) were used as reference compounds.
as §1
HIV-RT and human polymerases α, β, and γ were bought from Roboklon and Chimerx. The fluorescent-labeled primer and template were obtained from Metabion. […]

[2] = 25 mM PBS, pH 7.3, 37 °C, read-out: PBS pH 7.3 t1/2 (converted)
[3] = PBS, pH 8.0, 37 °C, read-out: PBS pH 8.0 t1/2 (converted)

Question: What does the source list for `CCCCCCCCCCCCCCCCCCOP(=O)(O)OP(=O)(O)OP(=O)(O)OP(=O)(O)OC[C@@H]1C=C[C@H](n2cc(C)c(=O)[nH]c2=O)O1` [compound 20, δ-(Alkyl-C18)-d4T4P]?
Answer: substrate for HIV-RT (primer extension) (HIV-RT): substrates; half-life at 1.9 mM [1, 2]: 132 h

Question: With `CCCCCCCCCCCCCCCCCCP(=O)(O)OP(=O)(O)OP(=O)(O)OP(=O)(O)OC[C@@H]1C=C[C@H](n2cc(C)c(=O)[nH]c2=O)O1` [compound 24, δ-C-(Alkyl-C18)-d4T4P] as the compound, how does the “substrate for HIV-RT (primer extension)” value (HIV-RT) read?
Answer: Its value is “substrates”.

Question: And the half-life at 1.9 mM [1, 2]?
Answer: The half-life at 1.9 mM was greater than 1000 h.

Question: What does the source list for `CCCCCCCCCCCCCCCCCCP(=O)(OCCCC)OP(=O)(O)OP(=O)(O)OP(=O)(O)OC[C@@H]1C=C[C@H](n2cc(C)c(=O)[nH]c2=O)O1` (stereo partly shown) [5a, δ-(Alkyl-C4)-δ-C-(alkyl-C18)-d4T4P]?
Answer: substrate for HIV-RT (primer extension) (HIV-RT): good substrates; substrate for human DNA polymerase β (primer extension) (human DNA polymerase β): No incorporation of d4TMP; half-life [1]: > 150 h; half-life at 1.9 mM [1, 2]: > 1000 h; half-life at 1.9 mM [1, 3]: > 200 h

Question: Which results are given for `CCCCCCCCCCCCCCCCCCOP(=O)(OCCCC)OP(=O)(O)OP(=O)(O)OP(=O)(O)OC[C@@H]1C=C[C@H](n2cc(C)c(=O)[nH]c2=O)O1` (stereo partly shown) [4d, δ-(Alkyl-C4; alkyl-C18)-d4T4P]?
Answer: substrate for HIV-RT (primer extension) (HIV-RT): good substrates; substrate for human DNA polymerase β (primer extension) (human DNA polymerase β): not accepted; half-life [1]: 66 h; half-life at 1.9 mM [1, 2]: 251 h; half-life at 1.9 mM [1, 3]: > 100 h

Question: For `Cc1cn([C@H]2C=C[C@@H](COP(=O)(O)OP(=O)(O)OP(=O)(O)OP(=O)(O)O)O2)c(=O)[nH]c1=O` [d4T4P, 2′,3′-didehydro-2′,3′-dideoxythymidine-5′-tetraphosphate], which “substrate for HIV-RT (primer extension)” value (HIV-RT) is on record?
Answer: The value was “substrate”.

Question: What about the “substrate for human DNA polymerase β (primer extension)” value (human DNA polymerase β) of the same compound?
Answer: Its value is “efficiently incorporated; also recorded: substrate”.

Question: What about the half-life [1] of the same compound?
Answer: The half-life was greater than 150 h.

Question: What about the half-life at 1.9 mM [1, 2] of the same compound?
Answer: Its half-life at 1.9 mM is 534 h.

Question: And the half-life at 1.9 mM [1, 3]?
Answer: Its half-life at 1.9 mM is greater than 150 h.

Source: paper PMC10895676, “Antiviral Activity of Lipophilic Nucleoside Tetraphosphate Compounds” (Journal of Medicinal Chemistry, 2024)
